Data from paper PMC9898036, “VIP152 is a selective CDK9 inhibitor with pre-clinical in vitro and in vivo efficacy in chronic lymphocytic leukemia” (Leukemia, 2022).

Key:
FGFR4 = FGFR4 (Homo sapiens, UniProt P22455); assay: KINOMEscan: FGFR4; assay type: binding; conditions: 1000 nM, read-out: Percent Control
[1] = target: Androgen (Testosterone) AR (Rattus norvegicus, UniProt P15207); assay: Eurofins Diversity Panel; assay type: binding; conditions: Conc. 10 μM
FLT3(ITD,F691L) = assay: KINOMEscan: FLT3(ITD,F691L); assay type: binding, human; conditions: 1000 nM
GSK3α = GSK3α (Homo sapiens, UniProt P49840); assay: NanoBRET target engagement assay (HEK293); assay type: cell-based
GSK3α, sequence (P49840 whole entry): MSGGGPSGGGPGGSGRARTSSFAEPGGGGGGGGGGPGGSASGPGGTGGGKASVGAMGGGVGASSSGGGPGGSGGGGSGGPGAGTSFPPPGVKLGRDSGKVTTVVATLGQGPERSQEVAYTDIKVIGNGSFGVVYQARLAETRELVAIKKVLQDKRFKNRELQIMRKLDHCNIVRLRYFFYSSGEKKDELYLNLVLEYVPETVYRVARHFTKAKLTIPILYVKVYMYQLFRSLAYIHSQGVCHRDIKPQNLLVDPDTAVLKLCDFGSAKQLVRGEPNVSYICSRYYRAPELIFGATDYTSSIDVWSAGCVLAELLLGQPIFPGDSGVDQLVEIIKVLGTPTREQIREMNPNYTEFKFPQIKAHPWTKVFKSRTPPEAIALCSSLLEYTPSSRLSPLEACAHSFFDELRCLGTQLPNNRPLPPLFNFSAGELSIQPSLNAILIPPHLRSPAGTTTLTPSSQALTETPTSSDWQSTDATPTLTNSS

MAP4K3 = MAP4K3 (Homo sapiens, UniProt Q8IVH8); assay: KINOMEscan: MAP4K3; assay type: binding; conditions: 1000 nM, read-out: Percent Control
MLK3 = MLK3 (Homo sapiens, UniProt Q16584); assay: KINOMEscan: MLK3; assay type: binding; conditions: 1000 nM, read-out: Percent Control
Sodium Channel, Site 2 = assay: Eurofins Diversity Panel; assay type: binding; conditions: rat, Conc. 10 μM
[2] = target: Nicotinic Acetylcholine α1, Bungarotoxin (Homo sapiens, UniProt P02708+P07510+Q07001); assay: Eurofins Diversity Panel; assay type: binding; conditions: read-out: % Inh.
Nicotinic Acetylcholine α1, Bungarotoxin, sequence (Q07001 22-517): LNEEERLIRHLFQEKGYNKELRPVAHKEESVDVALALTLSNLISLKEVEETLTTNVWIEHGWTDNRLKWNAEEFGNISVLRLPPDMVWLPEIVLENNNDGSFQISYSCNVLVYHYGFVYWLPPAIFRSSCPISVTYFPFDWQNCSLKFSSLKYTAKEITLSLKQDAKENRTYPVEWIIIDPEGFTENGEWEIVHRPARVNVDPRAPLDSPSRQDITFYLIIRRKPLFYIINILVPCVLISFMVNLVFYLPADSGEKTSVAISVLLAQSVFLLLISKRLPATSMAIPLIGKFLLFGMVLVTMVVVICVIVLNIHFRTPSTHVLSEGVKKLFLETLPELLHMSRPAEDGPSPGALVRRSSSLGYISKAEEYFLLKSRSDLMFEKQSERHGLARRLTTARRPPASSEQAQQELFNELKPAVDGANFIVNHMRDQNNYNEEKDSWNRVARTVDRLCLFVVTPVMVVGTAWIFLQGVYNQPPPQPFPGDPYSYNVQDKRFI
Nicotinic Acetylcholine α1, Bungarotoxin, sequence (P07510 23-517): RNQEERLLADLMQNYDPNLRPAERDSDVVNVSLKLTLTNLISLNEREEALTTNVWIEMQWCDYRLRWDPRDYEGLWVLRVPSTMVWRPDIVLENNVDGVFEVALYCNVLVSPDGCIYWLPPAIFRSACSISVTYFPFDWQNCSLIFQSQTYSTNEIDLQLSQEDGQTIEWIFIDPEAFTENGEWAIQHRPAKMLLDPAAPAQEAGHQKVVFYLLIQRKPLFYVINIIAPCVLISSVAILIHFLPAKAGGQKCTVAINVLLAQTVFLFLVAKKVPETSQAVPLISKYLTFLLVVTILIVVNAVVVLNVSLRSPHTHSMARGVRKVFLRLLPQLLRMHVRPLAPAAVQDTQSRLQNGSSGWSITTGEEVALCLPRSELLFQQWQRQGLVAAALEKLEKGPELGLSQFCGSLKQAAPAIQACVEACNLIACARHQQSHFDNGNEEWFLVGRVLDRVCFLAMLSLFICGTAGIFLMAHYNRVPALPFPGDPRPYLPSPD
Nicotinic Acetylcholine α1, Bungarotoxin, sequence (P11230 24-501, further chain): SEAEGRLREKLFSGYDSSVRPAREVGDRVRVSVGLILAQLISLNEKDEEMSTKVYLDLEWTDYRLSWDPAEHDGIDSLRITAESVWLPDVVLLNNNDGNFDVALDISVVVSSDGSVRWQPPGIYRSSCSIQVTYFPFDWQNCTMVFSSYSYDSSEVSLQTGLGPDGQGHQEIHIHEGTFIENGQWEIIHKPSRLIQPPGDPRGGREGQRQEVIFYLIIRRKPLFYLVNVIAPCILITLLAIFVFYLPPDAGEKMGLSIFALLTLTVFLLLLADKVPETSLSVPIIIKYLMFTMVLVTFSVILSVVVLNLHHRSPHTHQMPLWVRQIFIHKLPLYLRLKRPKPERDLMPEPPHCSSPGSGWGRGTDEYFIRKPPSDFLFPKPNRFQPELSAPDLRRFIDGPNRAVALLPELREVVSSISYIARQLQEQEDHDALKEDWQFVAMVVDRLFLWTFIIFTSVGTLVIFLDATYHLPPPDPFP
Nicotinic Acetylcholine α1, Bungarotoxin, sequence (P02708 21-457): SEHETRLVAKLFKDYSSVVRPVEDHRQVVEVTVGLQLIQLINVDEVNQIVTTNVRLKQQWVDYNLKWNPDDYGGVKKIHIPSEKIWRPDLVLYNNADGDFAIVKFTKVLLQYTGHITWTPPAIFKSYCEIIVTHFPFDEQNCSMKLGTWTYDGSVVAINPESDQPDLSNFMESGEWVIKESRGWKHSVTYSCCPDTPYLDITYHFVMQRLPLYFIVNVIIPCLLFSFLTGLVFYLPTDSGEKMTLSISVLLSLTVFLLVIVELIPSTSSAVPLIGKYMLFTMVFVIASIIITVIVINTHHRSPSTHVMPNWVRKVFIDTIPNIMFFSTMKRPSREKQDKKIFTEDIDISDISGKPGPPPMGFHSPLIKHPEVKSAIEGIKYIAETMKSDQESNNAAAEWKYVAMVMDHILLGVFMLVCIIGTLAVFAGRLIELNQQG

CAMK2G = CAMK2G (Homo sapiens, UniProt Q13555); assay: KINOMEscan: CAMK2G; assay type: binding; conditions: 1000 nM, read-out: Percent Control
CAMK2G, sequence (Q13555 whole entry): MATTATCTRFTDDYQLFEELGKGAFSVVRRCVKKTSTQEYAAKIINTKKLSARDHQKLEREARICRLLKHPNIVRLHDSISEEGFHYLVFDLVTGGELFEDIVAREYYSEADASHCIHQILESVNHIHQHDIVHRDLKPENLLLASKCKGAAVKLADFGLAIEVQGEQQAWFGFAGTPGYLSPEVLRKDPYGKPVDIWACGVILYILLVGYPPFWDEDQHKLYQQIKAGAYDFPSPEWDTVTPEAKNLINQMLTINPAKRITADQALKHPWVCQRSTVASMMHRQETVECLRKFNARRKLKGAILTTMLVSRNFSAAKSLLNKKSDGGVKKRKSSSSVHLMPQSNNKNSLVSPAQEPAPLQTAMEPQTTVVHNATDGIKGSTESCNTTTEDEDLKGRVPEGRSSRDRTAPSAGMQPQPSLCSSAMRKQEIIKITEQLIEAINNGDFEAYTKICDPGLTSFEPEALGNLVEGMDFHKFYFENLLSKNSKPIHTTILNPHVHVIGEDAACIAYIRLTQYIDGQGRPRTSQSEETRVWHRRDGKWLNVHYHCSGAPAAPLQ

FLT3(ITD) = assay: KINOMEscan: FLT3(ITD); assay type: binding, human; conditions: 1000 nM
CSF1R = CSF1R (Homo sapiens, UniProt P07333); assay: KINOMEscan: CSF1R; assay type: binding; conditions: 1000 nM, read-out: Percent Control
[3] = target: RSK4(Kin.Dom.2-C-terminal) (Homo sapiens, UniProt Q9UK32); assay: KINOMEscan: RSK4(Kin.Dom.2-C-terminal); assay type: binding; conditions: 100 nM, read-out: Percent Control
CDK8 = CDK8 (Homo sapiens, UniProt P49336); assay: KINOMEscan: CDK8; assay type: binding; conditions: 1000 nM, read-out: Percent Control
CAMKK1 = CAMKK1 (Homo sapiens, UniProt Q8N5S9); assay: KINOMEscan: CAMKK1; assay type: binding; conditions: 1000 nM, read-out: Percent Control
BLK = BLK (Homo sapiens, UniProt P51451); assay: KINOMEscan: BLK; assay type: binding; conditions: 1000 nM, read-out: Percent Control
KIT(V559D,T670I) = KIT(V559D,T670I) (Homo sapiens, UniProt P10721, T670I/V559D); assay: KINOMEscan: KIT(V559D,T670I); assay type: binding; conditions: 1000 nM, read-out: Percent Control
KIT(V559D,T670I), sequence (P10721 26-976 V559D/T670I): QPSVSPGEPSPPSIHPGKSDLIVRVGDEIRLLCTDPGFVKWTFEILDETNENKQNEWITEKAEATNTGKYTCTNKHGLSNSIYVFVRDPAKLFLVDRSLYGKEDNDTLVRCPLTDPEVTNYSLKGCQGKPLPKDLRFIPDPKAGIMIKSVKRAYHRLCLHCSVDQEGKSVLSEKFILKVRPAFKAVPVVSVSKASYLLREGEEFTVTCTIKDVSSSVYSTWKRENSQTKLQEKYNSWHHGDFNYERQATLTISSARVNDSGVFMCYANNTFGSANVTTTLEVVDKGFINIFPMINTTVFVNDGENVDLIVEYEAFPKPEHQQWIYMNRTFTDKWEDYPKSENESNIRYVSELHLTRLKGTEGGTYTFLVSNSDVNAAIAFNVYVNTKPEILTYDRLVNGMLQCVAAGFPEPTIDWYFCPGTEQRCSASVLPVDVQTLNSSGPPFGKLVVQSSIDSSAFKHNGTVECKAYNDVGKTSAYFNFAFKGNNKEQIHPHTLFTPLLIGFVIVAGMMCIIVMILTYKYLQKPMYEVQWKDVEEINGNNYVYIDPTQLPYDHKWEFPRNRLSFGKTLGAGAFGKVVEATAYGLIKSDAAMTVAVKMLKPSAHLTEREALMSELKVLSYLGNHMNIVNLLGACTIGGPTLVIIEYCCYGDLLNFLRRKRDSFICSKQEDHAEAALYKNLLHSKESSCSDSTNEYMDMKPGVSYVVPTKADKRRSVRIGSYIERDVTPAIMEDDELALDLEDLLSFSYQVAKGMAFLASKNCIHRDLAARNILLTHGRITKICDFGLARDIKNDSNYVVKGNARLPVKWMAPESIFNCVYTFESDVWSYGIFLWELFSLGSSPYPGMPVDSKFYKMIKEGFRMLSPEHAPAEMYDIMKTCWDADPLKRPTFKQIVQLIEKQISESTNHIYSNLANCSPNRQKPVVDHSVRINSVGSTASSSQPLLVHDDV

PFCDPK1(P.falciparum) = PFCDPK1(P.falciparum) (Plasmodium falciparum, UniProt P62344); assay: DiscoverX KINOMEscan kinase profiling; assay type: binding; conditions: kinase PFCDPK1(P.falciparum) (Entrez CDPK1); compound concentration 1000 nM; read-out: Percent Control
FLT3(R834Q) = FLT3(R834Q) (Homo sapiens, UniProt P36888, R834Q); assay: KINOMEscan: FLT3(R834Q); assay type: binding; conditions: 1000 nM, read-out: Percent Control
[4] = tested on: C57BL/6 J mice engrafted with Eµ-MTCP1 splenocytes; assay: Eµ-MTCP1 adoptive transfer murine CLL model; assay type: in vivo, mouse; conditions: 12.5mg/kg tail vein injection, every week
Protocol: All animal studies were carried out under protocols approved by The Ohio State University Institutional Animal Care and Use Committee (IACUC). Previously, 1 × 10^6 splenocytes from Eµ-MTCP1 mice, which recently were described to mimic human CLL, were resuspended in PBS and injected via tail vein into male C57BL/6 J from The Jackson Laboratory. Mice were monitored for development of peripheral disease by flow cytometry, measuring the percentage of CD5^+/CD19^+ cells in peripheral blood. Complete in vivo methods may be found in the supplementary material.
In vitro systems generally lack the full microenvironment that can lead to tumor cell resistance and survival. Next, we sought to assess the in vivo efficacy of VIP152 to better evaluate its potential clinical utility in patients with CLL. To accomplish this we used a novel transgenic model of CLL (Eµ-MTCP1 model) developed recently by our group that is characterized by CD5^+/CD19^+ and B220^Dim expansion in the blood. Splenocytes from diseased Eµ-MTCP1 mice were serially engrafted via tail vein injection and monitored for leukemia via weekly flow cytometry (Fig. 5A). Mice were randomized to vehicle versus VIP152 at the time blood disease was evident and treated every week until endpoint. […] Mice in the VIP152 treatment group had improved overall survival compared with vehicle with a median survival of 46 days vs 32 days respectively (Fig. 5D – p < 0.005). Following enrollment two mice had reduction in disease that was sustained below 10% for the duration of study and these mice were censored after 100 days upon which treatment was ceased. Two months following treatment cessation these mice succumbed to likely illness with evident splenomegaly. […]
Transcriptase. cDNA was immediately taken for qPCR using TaqMan Fast Advanced Master Mix using […]
Upon reaching 80% disease, these mice were euthanized and spleens were harvested. Splenocytes from a single donor were then used for the studies described here. 1 x 10^6 splenocytes were again injected via tail vein into male C57BL/6J mice and monitored via flow cytometry as previously described for development of disease as defined by ≥10% CD45+/CD5+/CD19+32. Upon reaching 10% disease, mice were randomly enrolled into one of two treatment arms: tail vein injection of 12.5mg/kg VIP152 dissolved in (30/10/60 v/v/v PEG400/EtOH/0.5% Tween-80 in water) or vehicle control.
Flow Cytometry analysis of blood […]
Anti-Mouse CD45R/B220 – cat. […] Data were analyzed using Kaluza Analysis Software (Beckman-Coulter v2.1).
Mass spectra from all samples (N = 12) were converted to mzML with ProteoWizard and OpenMS (v 2.5.0)30,31. Features from converted files were detected with Biosaur and searched on the OpenMS platform with […]

Dopamine D1 = Dopamine D1 (Homo sapiens, UniProt P21728); assay: Eurofins Diversity Panel; assay type: binding; conditions: hum, Conc. 10 μM
MARK3 = MARK3 (Homo sapiens, UniProt P27448); assay: KINOMEscan: MARK3; assay type: binding; conditions: 1000 nM, read-out: Percent Control
KIT(V559D) = KIT(V559D) (Homo sapiens, UniProt P10721, V559D); assay: KINOMEscan: KIT(V559D); assay type: binding; conditions: 1000 nM, read-out: Percent Control
KIT(V559D), sequence (P10721 26-976 V559D): as the sequence (P10721 26-976 V559D/T670I) above, with I645T counted along it

Androgen (Testosterone) AR, sequence (P15207 whole entry S389L): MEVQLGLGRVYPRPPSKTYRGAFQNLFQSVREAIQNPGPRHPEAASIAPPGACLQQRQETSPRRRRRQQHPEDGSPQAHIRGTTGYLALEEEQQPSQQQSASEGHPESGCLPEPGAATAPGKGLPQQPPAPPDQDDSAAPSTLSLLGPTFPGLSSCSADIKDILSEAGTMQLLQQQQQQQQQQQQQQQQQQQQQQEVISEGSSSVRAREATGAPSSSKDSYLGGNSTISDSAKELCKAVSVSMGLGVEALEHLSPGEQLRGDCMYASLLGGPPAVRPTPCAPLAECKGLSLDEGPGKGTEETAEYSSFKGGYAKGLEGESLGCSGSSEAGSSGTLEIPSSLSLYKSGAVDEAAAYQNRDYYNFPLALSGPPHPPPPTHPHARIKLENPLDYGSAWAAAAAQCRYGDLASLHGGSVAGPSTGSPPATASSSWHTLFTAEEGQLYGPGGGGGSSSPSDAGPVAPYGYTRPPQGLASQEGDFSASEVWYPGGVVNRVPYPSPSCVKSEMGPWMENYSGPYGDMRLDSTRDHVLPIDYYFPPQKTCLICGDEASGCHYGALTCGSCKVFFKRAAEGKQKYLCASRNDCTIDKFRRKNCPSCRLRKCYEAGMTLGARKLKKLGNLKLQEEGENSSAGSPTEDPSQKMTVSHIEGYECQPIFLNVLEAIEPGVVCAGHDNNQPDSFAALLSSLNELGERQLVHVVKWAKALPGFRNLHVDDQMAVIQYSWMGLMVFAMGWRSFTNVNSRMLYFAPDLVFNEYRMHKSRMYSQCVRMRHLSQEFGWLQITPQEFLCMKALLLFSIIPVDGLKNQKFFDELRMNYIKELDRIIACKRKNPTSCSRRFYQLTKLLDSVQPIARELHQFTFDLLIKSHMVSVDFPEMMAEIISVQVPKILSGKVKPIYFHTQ

SMILES: COc1cc(F)ccc1-c1cc(Nc2cc(CS(C)(=N)=O)ccn2)ncc1F (stereo not shown) [VIP152]
- remaining binding at 1 µM (FGFR4): 76%
- inhibition at 10 µM [1]: 35%
- Percent Control (FLT3(ITD,F691L)): 78%
- inhibitory capacity against GSK3α (GSK3α): Inhibits
- remaining binding at 1 µM (MAP4K3): 57%
- remaining binding at 1 µM (MLK3): 87%
- % Inh. (Sodium Channel, Site 2): 26%
- inhibition at 10 µM [2]: 3%
- remaining binding at 1 µM (CAMK2G): 78%
- Percent Control (FLT3(ITD)): 87%
- remaining binding at 1 µM (CSF1R): 70%
- remaining binding at 0.1 µM [3]: 100%
- remaining binding at 1 µM (CDK8): 93%
- remaining binding at 1 µM (CAMKK1): 13%
- remaining binding at 1 µM (BLK): 76%
- remaining binding at 1 µM (KIT(V559D,T670I)): 64%
- remaining binding at 1 µM (PFCDPK1(P.falciparum)): 86%
- remaining binding at 1 µM (FLT3(R834Q)): 78%
- weight loss [4]: did not observe any weight loss
- median survival ([4]; vehicle 32 days): 46 days
- CD5+/CD19+ disease burden in peripheral blood ([4]; vs vehicle): statistically significantly lower
- spleen size and spleen disease burden at endpoint ([4]; vs vehicle): did not have significantly smaller spleens nor significant decrease in spleen disease burden
- inhibition at 10 µM (Dopamine D1): 14%
- remaining binding at 1 µM (MARK3): 100%
- remaining binding at 1 µM (KIT(V559D)): 82%
